# According to patent publication US20260232827A1, “ANTIBODY-DRUG CONJUGATES TARGETING NAPI2B AND METHODS OF USE” (Zymeworks BC Inc., priority 2023, published 2026):
# What was measured:
# [1] = biological target: T1, human NaPi2b (Homo sapiens, UniProt O95436); experiment: Flow cytometry binding to transfected HEK293-6e cells; conditions: huNaPi2b (full length human NaPi2b), 24 hours at 4° C.
# T1 construct: Full length human NaPi2b; host or cells: HEK293-6e
# T1 sequence (O95436 1-690): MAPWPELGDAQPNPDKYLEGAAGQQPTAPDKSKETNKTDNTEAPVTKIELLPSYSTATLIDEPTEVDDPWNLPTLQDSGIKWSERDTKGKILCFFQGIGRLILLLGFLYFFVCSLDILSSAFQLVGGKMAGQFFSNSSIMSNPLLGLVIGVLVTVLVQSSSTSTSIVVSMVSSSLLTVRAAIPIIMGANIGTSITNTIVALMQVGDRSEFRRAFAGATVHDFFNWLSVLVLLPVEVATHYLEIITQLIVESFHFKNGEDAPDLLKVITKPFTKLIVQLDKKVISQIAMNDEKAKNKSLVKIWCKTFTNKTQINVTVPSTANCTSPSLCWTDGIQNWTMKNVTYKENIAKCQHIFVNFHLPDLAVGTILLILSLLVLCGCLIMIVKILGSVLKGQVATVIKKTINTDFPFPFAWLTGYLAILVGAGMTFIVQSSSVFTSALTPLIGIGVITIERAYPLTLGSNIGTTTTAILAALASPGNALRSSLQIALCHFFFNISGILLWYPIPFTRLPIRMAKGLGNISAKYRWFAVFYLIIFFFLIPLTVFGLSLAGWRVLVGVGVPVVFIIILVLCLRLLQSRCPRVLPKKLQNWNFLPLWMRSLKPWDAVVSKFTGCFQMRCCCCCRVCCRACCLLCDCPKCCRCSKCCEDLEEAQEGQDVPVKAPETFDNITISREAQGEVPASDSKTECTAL
# Procedure: The binding cross-reactivity of humanized antibody variant v29456 to human, cynomolgus and mouse NaPi2b was assessed by flow cytometry using HEK293-6e transfected cells.
# Following staining and washing, fluorescence was detected by flow cytometry on BD LSRFortessa™ Cell Analyzer (BD Biosciences, Franklin Lake, NJ) with 10,000 minimum events collected per well. The AF647/APC-A GeoMean (fluorescence signal geometric mean, proportional to anti-Human AF647 binding) was calculated for the live singlet cell population for each primary antibody using FlowJo™ v8 software (BD Biosciences, Franklin Lake, NJ). The Bmax and Kd of each primary antibody were calculated using GraphPad Prism Version 9 (GraphPad Software, San Diego, CA)
# (§1) Following incubation and washing, fluorescence was detected by flow cytometry on a BD LSRFortessa™ Cell Analyzer (BD Biosciences, Franklin Lake, NJ) with 1,000 minimum events collected per well.
# as §1, §1
# [2] = system: Construct 2 (chimeric human NaPi2b, region 280-301); experiment: Binding region mapping, flow cytometry on transfected HEK293-6e cells; conditions: 24 hours at 4° C.
# From the text: (§2) NaPi2b constructs containing deletions in the main extracellular loop of human NaPi2b, as well as chimeric NaPi2b/NaPi2c constructs concerning this main loop, were generated.
# (§3) As a complementary strategy, two additional constructs were designed in which the relevant region of the main loop was deleted such as to mimic NaPi2c/NaPi2a main extracellular loop (Constructs 6-7 in Table 52.1). Clones were generated at GenScript Biotech (Piscataway, NJ).
# (§4) Constructs were expressed in HEK293-6e cells as follows. Cells were maintained under standard culture conditions (37° C./5% CO2) with shaking at 110 rpm for suspension and cultured in FreeStyle™ 293 Expression Medium (Thermo Fisher Scientific, Waltham, MA) supplemented with 1% fetal bovine serum (Thermo Fisher Scientific, Waltham, MA) and 1× Penicillin-Streptomycin (Thermo Fisher Scientific, Waltham, MA). Cells were transfected with clones expressing the constructs listed in Table 52.1, at 1 μg of DNA per 1 million cells, using 293Fectin™ Transfection Reagent (Thermo Fisher Scientific, Waltham, MA) and Opti-MEM™ I Reduced Serum Medium (Thermo Fisher Scientific, Waltham, MA), and incubated for 24 hours under standard culture conditions (37° C./5% CO2/110 rpm). Following transfection, cells were seeded at 50,000 cells/well in conical-bottom 96-well plates and treated with a serial dilution of test antibody for 24 hours at 4° C. to prevent internalization. Cells were treated with final concentrations of all humanized antibodies of 200, 20, or 2 nM. Cells were treated with final concentrations of the reference anti-NaPi2a rabbit antibody of 50, 5, or 0.5 nM. […] Following incubation and washing, fluorescence was detected by flow cytometry on a BD LSRFortessa™ Cell Analyzer (BD Biosciences, Franklin Lake, NJ) with 1,000 minimum events collected per well. […] Background-subtracted AF647 Mean Fluorescence Intensity (MFI) values were calculated by subtracting the average MFI of three technical replicates of unstained (no primary antibody) cells.
# [3] = system: Construct 4 (chimeric human NaPi2b, region 341-358); experiment: as above; conditions: 24 hours at 4° C.
# From the text: as §2, §3, §4
# [4] = biological target: T2, Construct 7 (human NaPi2b deletion, region 317-326) (Homo sapiens, UniProt O95436, DEL317-326); experiment: as above; conditions: 24 hours at 4° C.
# T2 construct: host or cells: HEK293-6e
# T2 sequence (O95436 with tags, fused parts or gaps DEL317-326): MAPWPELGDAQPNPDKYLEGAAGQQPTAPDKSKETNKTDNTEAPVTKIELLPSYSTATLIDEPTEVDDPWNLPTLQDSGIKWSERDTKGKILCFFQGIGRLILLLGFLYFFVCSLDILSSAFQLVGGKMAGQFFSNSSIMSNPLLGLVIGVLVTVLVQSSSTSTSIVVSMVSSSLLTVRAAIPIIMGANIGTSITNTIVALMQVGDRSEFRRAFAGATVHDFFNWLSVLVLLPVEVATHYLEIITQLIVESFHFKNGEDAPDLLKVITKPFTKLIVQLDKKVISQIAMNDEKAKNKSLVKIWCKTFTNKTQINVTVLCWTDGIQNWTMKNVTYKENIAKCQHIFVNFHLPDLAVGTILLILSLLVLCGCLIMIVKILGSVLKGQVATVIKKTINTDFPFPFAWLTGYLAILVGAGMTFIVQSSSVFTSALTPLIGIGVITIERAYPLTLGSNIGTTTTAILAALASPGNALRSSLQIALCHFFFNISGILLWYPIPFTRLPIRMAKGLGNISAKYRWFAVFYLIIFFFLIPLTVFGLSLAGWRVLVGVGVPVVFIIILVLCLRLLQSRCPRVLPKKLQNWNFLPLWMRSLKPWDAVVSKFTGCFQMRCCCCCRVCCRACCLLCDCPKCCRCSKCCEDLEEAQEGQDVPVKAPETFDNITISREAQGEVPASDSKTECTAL
# From the text: as §2, §3, §4
# [5] = system: Construct 5 (chimeric human NaPi2b, region 304-348); experiment: as above; conditions: 24 hours at 4° C.
# Procedure: as §1
substance,measurement,setting,value
palivizumab [palivizumab (v21995)],Background-Subtracted AF647 Mean Fluorescence Intensity,[1]; antibody 2.0 nM,-22
same,Background-Subtracted AF647 Mean Fluorescence Intensity,[1]; antibody 20.0 nM,13
same,Background-Subtracted AF647 Mean Fluorescence Intensity,[1]; antibody 200.0 nM,19
same,Background-Subtracted AF647 Mean Fluorescence Intensity,[2]; antibody 2.0 nM,-69
same,Background-Subtracted AF647 Mean Fluorescence Intensity,[2]; antibody 20.0 nM,-64
same,Background-Subtracted AF647 Mean Fluorescence Intensity,[2]; antibody 200.0 nM,-30
same,Background-Subtracted AF647 Mean Fluorescence Intensity,[3]; antibody 2.0 nM,1
same,Background-Subtracted AF647 Mean Fluorescence Intensity,[3]; antibody 20.0 nM,22
same,Background-Subtracted AF647 Mean Fluorescence Intensity,[3]; antibody 200.0 nM,12
same,Background-Subtracted AF647 Mean Fluorescence Intensity,[4]; antibody 2.0 nM,-34
same,Background-Subtracted AF647 Mean Fluorescence Intensity,[4]; antibody 20.0 nM,-85
same,Background-Subtracted AF647 Mean Fluorescence Intensity,[4]; antibody 200.0 nM,-97
same,Background-Subtracted AF647 Mean Fluorescence Intensity,[5]; antibody 2.0 nM,-2
same,Background-Subtracted AF647 Mean Fluorescence Intensity,[5]; antibody 20.0 nM,123
same,Background-Subtracted AF647 Mean Fluorescence Intensity,[5]; antibody 200.0 nM,40
